In ChEMBL document CHEMBL5625206, “Design, synthesis, and evaluation of novel pleuromutilin aryl acrylate derivatives as promising broad-spectrum antibiotics especially for combatting multi-drug resistant gram-negative bacteria” (Eur J Med Chem, 2023):
In brackets after ≈: the same amount, converted by molar mass. Activity calls are given as the source filed them. No cut-off for these calls is given here.

How the values were obtained:
[1] = Half life in fasted Sprague-Dawley rat at 1 mg/kg, iv by LC-MS/MS analysis; format: ADME, organism-based; conditions: in vivo
Staphylococcus aureus [2] = assay: Antibacterial activity against methicillin-resistant Staphylococcus aureus ATCC 33591 infected in neutropenic Kunming mouse model assessed as reduction in infection-induced liver damage at 20 mg/kg, ip measured after 7 days; format: functional, organism-based; conditions: time 7.0 day
[3] = Toxicity in fasted female Sprague-Dawley rat assessed as relative ovary weight ratio at 331 mg/kg, IG measured for 14 days (reference value: 0.061 +/- 0.010); format: organism-based; conditions: in vivo, po, 336 h, time 14 day
[4] = Toxicity in fasted female Sprague-Dawley rat assessed as animal growth rate at 500 mg/kg, IG measured for 14 days (reference value: 29.85 +/- 4.97 g); format: organism-based; conditions: in vivo, po, 336 h, time 14 day
Staphylococcus aureus [5] = assay: Antibacterial activity against methicillin-resistant Staphylococcus aureus 171 clinical isolate assessed as bacterial growth inhibition incubated for 24 hrs by CLSI based broth microdilution method; format: functional
Escherichia coli [6] = assay: Induction of extracellular electrical conductivity in Escherichia coli ATCC 25922 at 2 times MIC incubated for 8 hrs relative to control; format: functional
[7] = Toxicity in fasted female Sprague-Dawley rat assessed as relative spleen weight ratio at 148 mg/kg, IG measured for 14 days (reference value: 0.223 +/- 0.019); format: organism-based; conditions: in vivo, po, 336 h, time 14 day
[8] = Toxicity in fasted male Sprague-Dawley rat assessed as body weight at 224 mg/kg, IG measured on same day (reference value: 212.7 +/- 13.2 g); format: organism-based; conditions: in vivo, po
[9] = tested on: Mesomycoplasma hyopneumoniae; assay: Anti-mycoplasma activity against Mycoplasma hyopneumoniae J-NCYC10110 assessed as bacterial growth inhibition incubated for 7 days; format: functional; conditions: J-NCYC10110, 168 h, time 7 day
[10] = Cytotoxicity against HEK293 cells incubated for 24 hrs by CCK8 assay; format: toxicity, cell-based; conditions: human
Staphylococcus aureus [11] = assay: Inhibition of biofilm formation of methicillin-resistant Staphylococcus aureus ATCC 33591 at 8 times MIC incubated for 24 hrs by crystal violet staining based analysis relative to control; format: functional
[12] = Toxicity in fasted female Sprague-Dawley rat assessed as relative lung weight ratio at 148 mg/kg, IG measured for 14 days (reference value: 0.534 +/- 0025); format: organism-based; conditions: in vivo, po, 336 h, time 14 day
[13] = Toxicity in fasted Sprague-Dawley rat assessed as mortality rate at 148 mg/kg, IG measured for 14 days; format: organism-based; conditions: in vivo, po, time 14 day
[14] = Toxicity in fasted male Sprague-Dawley rat assessed as relative testis weight ratio at 500 mg/kg, IG measured for 14 days (reference value: 0.993 +/- 0.052); format: organism-based; conditions: in vivo, po, 336 h, time 14 day
Staphylococcus aureus [15] = assay: Antibacterial activity against methicillin-resistant Staphylococcus aureus ATCC 33591 infected in neutropenic Kunming mouse model assessed as bacterial load reduction in kidney at 10 to 20 mg/kg, ip measured after 2 days; format: functional, organism-based; conditions: dose 10-20 mg/kg, time 2.0 day
Staphylococcus aureus [16] = assay: Antibacterial activity against methicillin-resistant Staphylococcus aureus ATCC 33591 infected in neutropenic Kunming mouse model assessed as restoration of infection- induced change in cell morphology in kidney at 20 mg/kg, ip measured after 7 days; format: functional, organism-based; conditions: time 7.0 day
[17] = Toxicity in fasted female Sprague-Dawley rat assessed as relative ovary weight ratio at 224 mg/kg, IG measured for 14 days (reference value: 0.061 +/- 0.010); format: organism-based; conditions: in vivo, po, 336 h, time 14 day
Escherichia coli [18] = assay: Induction of cell damage in Escherichia coli ATCC 25922 assessed as fold increase in extracellular ATP concentration at 2 times MIC incubated for 30 mins by fluorescence based analysis relative to control; format: functional; conditions: 0.5 h
Staphylococcus aureus [19] = assay: Induction of cell damage in methicillin-resistant Staphylococcus aureus ATCC 33591 assessed as fold increase in extracellular ATP concentration at MIC incubated for 30 mins by fluorescence based analysis relative to control; format: functional; conditions: 0.5 h
Escherichia coli [20] = assay: Inhibition of biofilm formation of Escherichia coli ATCC 25922 at 8 times MIC incubated for 24 hrs by crystal violet staining based analysis relative to control; format: functional
Pseudomonas aeruginosa = assay: Antibacterial activity against multidrug-resistant Pseudomonas aeruginosa 126 clinical isolate assessed as bacterial growth inhibition incubated for 24 hrs by CLSI based broth microdilution method; format: functional
[21] = Toxicity in fasted male Sprague-Dawley rat assessed as body weight at 100 mg/kg, IG measured after 14 days (reference value: 311.2 +/- 13.6 g); format: organism-based; conditions: in vivo, po, 336 h, time 14 day
[22] = Toxicity in fasted female Sprague-Dawley rat assessed as body weight at 331 mg/kg, IG measured on same day (reference value: 165.2 +/- 8.1 g); format: organism-based; conditions: in vivo, po
[23] = Toxicity in fasted female Sprague-Dawley rat assessed as body weight at 100 mg/kg, IG measured after 7 days (reference value: 188.2 +/- 9.2 g); format: organism-based; conditions: in vivo, po, 168 h, time 7 day
Staphylococcus aureus [24] = assay: Antibacterial activity against Staphylococcus aureus ATCC 29213 assessed as bacterial growth inhibition incubated for 24 hrs by CLSI based broth microdilution method; format: functional
Escherichia coli [25] = assay: Induction of extracellular electrical conductivity in Escherichia coli ATCC 25922 at MIC incubated for 8 hrs relative to control; format: functional
[26] = Toxicity in fasted male Sprague-Dawley rat assessed as relative liver weight ratio at 100 mg/kg, IG measured for 14 days (reference value: 3.616 +/- 0.286); format: organism-based; conditions: in vivo, po, 336 h, time 14 day
[27] = Toxicity in fasted male Sprague-Dawley rat assessed as body weight at 224 mg/kg, IG measured after 14 days (reference value: 311.2 +/- 13.6 g); format: organism-based; conditions: in vivo, po, 336 h, time 14 day
[28] = Toxicity in fasted male Sprague-Dawley rat assessed as relative kidney weight ratio at 500 mg/kg, IG measured for 14 days (reference value: 0.820 +/- 0.072); format: organism-based; conditions: in vivo, po, 336 h, time 14 day
Escherichia coli [29] = assay: Induction of cell damage in Escherichia coli ATCC 25922 assessed as decrease in intracellular ATP concentration at MIC incubated for 30 mins by fluorescence based analysis relative to control; format: functional; design: scale not given: the % may be the effect or the level left; conditions: 0.5 h
[30] = Volume of distribution at steady state in fasted Sprague-Dawley rat at 1 mg/kg, iv by LC-MS/MS analysis; format: ADME, organism-based; conditions: in vivo, read-out: Vdss
[31] = Toxicity in fasted female Sprague-Dawley rat assessed as body weight at 100 mg/kg, IG measured after 14 days (reference value: 214.3 +/- 9.8 g); format: organism-based; conditions: in vivo, po, 336 h, time 14 day
[32] = Toxicity in fasted female Sprague-Dawley rat assessed as relative kidney weight ratio at 224 mg/kg, IG measured for 14 days (reference value: 0.802 +/- 0.031); format: organism-based; conditions: in vivo, po, 336 h, time 14 day
[33] = Clearance in fasted Sprague-Dawley rat at 1 mg/kg, iv by LC-MS/MS analysis; format: ADME, organism-based; conditions: in vivo
[34] = AUC (0 to t) in fasted Sprague-Dawley rat at 1 mg/kg, iv by LC-MS/MS analysis; format: ADME, organism-based; conditions: in vivo
[35] = Toxicity in fasted female Sprague-Dawley rat assessed as animal growth rate at 148 mg/kg, IG measured for 14 days (reference value: 29.85 +/- 4.97 g); format: organism-based; conditions: in vivo, po, 336 h, time 14 day
[36] = Toxicity in fasted male Sprague-Dawley rat assessed as relative testis weight ratio at 224 mg/kg, IG measured for 14 days (reference value: 0.993 +/- 0.052); format: organism-based; conditions: in vivo, po, 336 h, time 14 day

C=C[C@]1(C)C[C@@H](OC(=O)COC(=O)/C=C/c2ccc(N(C)C)cc2)[C@]2(C)[C@H](C)CC[C@]3(CCC(=O)[C@H]32)[C@@H](C)[C@@H]1O
half-life [1]: 40.8 min
Activity (Staphylococcus aureus [2]): Active
Ratio [3]: 0.067
Activity [4]: 30.22%
MIC (Staphylococcus aureus [5]): 8 µg/mL (≈ 14.5 µM)
Activity (Escherichia coli [6]): 20.78%
Ratio [7]: 0.238
Activity [8]: 210.1 g
MIC [9]: 0.008 µg/mL (≈ 0.0145 µM)
CC50 at 24 h [10]: 34.6 µM
inhibition (INH) (Staphylococcus aureus [11]): 97.64%
Ratio [12]: 0.494
mortality at 336 h [13]: 0%
Ratio [14]: 0.956
Activity (Staphylococcus aureus [15]): Active
Activity (Staphylococcus aureus [16]): Active
Ratio [17]: 0.073
fold change (FC) (Escherichia coli [18]): 5.35
fold change (FC) (Staphylococcus aureus [19]): 4.01
inhibition (INH) (Escherichia coli [20]): 97.56%
MIC (Pseudomonas aeruginosa): 32 µg/mL (≈ 58 µM)
Activity [21]: 314.5 g
Activity [22]: 171.3 g
Activity [23]: 188.2 g
MIC (Staphylococcus aureus [24]): 2 µg/mL (≈ 3.63 µM)
Activity (Escherichia coli [25]): 15.45%
Ratio [26]: 3.623
Activity [27]: 304.9 g
Ratio [28]: 0.759
Activity (Escherichia coli [29]): 50.75%
Vd [30]: 2 L/kg
Activity [31]: 214.6 g
Ratio [32]: 0.839
clearance [33]: 35 mL/min/kg
AUC(0-t) [34]: 512 ng·h/mL
Activity [35]: 31.79%
Ratio [36]: 0.981
